Experimental data reported in patent publication US12653862B2, “Anti-senescence compounds and uses thereof” (CLEARA BIOTECH B.V., priority 2020, dated 2026).

Experiments:
[1] = test system: CRC29 colorectal cancer organoids; assay: Apoptosis and viability in patient-derived colorectal cancer organoid line CRC29; format: cell-based, Human
Method: (§1) Organoids were grown at 37° C. and 5% CO2 in a humidified incubator. All organoids were cultured in matrigel (Corning) droplets in advanced DMEM/F12 (Lonza) supplemented with 1% glutamax, 1% Penicillin/Streptomycin, 1% (10 mM) HEPES, 10% Noggin conditioned medium, 2% B-27 (50×; (Thermo/Life Technologies), N-acetylcysteine ((Sigma-Aldrich, 1.25 mM)), A83-01 (Tocris, 500 nM) and SB203580 (Invitrogen/Life Technologies, 3 μM). To perform viability and apoptosis assays, the organoids were passaged through resuspension in ice-cold medium, followed by centrifugation in 15 ml tubes at 4° C. The resulting pellet was trypsinized for 5 minutes at 37° C. to obtain single cells and subsequently washed twice with advanced DMEM/F12 media. These cells were then resuspended in Matrigel and plated in 96-well plates in 5 ul droplets. 100 ul fresh medium was added to the wells 15 minutes later. Peptide and chemotherapy treatment was added to the organoids 2 days after plating.
A Live/dead assay was performed on both larger organoids 3 days after peptide and/or chemotherapy treatment, or on organoids that were treated as single cells and allowed to grow out for 2 weeks before the assay was performed. […] The organoids were then imaged on a Zeiss Cell Observer microscope and the signal was quantified using FIJI. […]

[2] = test system: NRAS mutated and BRAF mutated melanoma; assay: Efficacy against melanoma; format: cell-based
[3] = test system: CRC29 colorectal cancer organoid line; assay: Bioluminescence of luciferase-expressing CRC29 transplanted in the caecum of immunodeficient mice; format: in vivo; details: 3 doses, imaged two days after last dose, vs PBS
Method: (§2) Mouse experiments were performed after approval from the Dutch animal ethics committee. For these experiments male NOD.Cg-Prkdc^scid Il2rg^tmlWjl/SzJ/J mice (Charles River) were employed. Human CRC29 colorectal cancer organoids containing firefly luciferase were implanted into the caecum, resulting in the formation of a primary tumor at this site. The implantation was performed under ketamine and dexmedetomidine anaesthesia. In addition, the animals received carpofen 30 min before surgery and the day after. 14 days after transplantation, the mice were sedated using isoflurane and imaged under the BioSpace Imager. Subsequently, The animals were treated with either PBS or with ′5-Fluorouracil (5-FU) at a dose of 50 mg/kg via i.p. injection. The first dose of CL04183 (2.5 mg/kg) was administered via i.v. injection 1 week after 5-FU treatment and this treatment was repeated 2 and 4 days later. 4 weeks after transplantation, the mice were imaged again to determine treatment effect and subsequently sacrificed. All organs were harvested and imaged under the BioSpace Imager again and the luciferase signal was quantified using the M3 vision software.

[4] = test system: CRC29 colorectal cancer organoid line; assay: CRC29 metastasis in liver and lung, human nucleoli staining; format: in vivo, mice; details: 3 doses, vs PBS
Method: as §2
Liver and lung paraffin sections were rehydrated in decreasing concentrations of ethanol before being washed in TBS and boiled for 20 minutes in 10 mM sodium citrate buffer (PH6) for antigen unmasking. […]

[5] = Grey hair in naturally aged mice; format: in vivo; details: 24-month old C57BL/6J mice, 3 doses i.v., 4 weeks after first treatment, vs PBS
Description: 24-month old C57BL/6J mice were photographed before receiving 3 doses of either PBS or CL04183 (SEQ ID NO: 55) through i.v. injection. 4 weeks after the first treatment the mice were photographed again.

RPE1 cells = assay: Senescent vs ctrl human RPE1 cells; format: cell-based; details: vs FOXO4-DRI (CL03001) within one experiment
Method: Human IMR90, WI38 and RPE cells were grown in Dulbecco's Modified Eagle's Medium (DMEM; Lonza) containing 10% FCS and 1% pen/strep at 37° C. with 3.0% 02 and 5.0% CO2. To induce senescence, cells were irradiated with 10Gy ionizing radiation (Gammacell 1000) and were left for a minimum of 10 days to become senescent.
To perform viability and apoptosis assays, cells were split into 96-well plates and treated with peptides 2 days later. Non-senescent and cancer cells were plated 1500 cells/well, while senescent cells were plated at 8.000 cells/well.

[6] = test system: triple negative breast cancer lines; assay: MTS cell viability in human breast cancer cell lines; format: cell-based; details: increasing concentrations, 2 days
CRC29 lung metastases = assay: TUNEL assay on CRC29 lung metastases; format: in vivo, mice; details: vs PBS
Method: as §2
A TUNEL assay was performed on lung metastases to determine apoptosis induction after treatment. […] Images were acquired using a LSM880 confocal microscope (Zeiss) and the percentage of TUNEL-positive cells was analysed using FIJI.

[7] = Peptide stability in solution; format: physicochemical
Method: Both peptides were dissolved in H2O and kept at room temperature. The peptide concentration was determined for the indicated time points.

[8] = test system: WT colon and tumor progression (TPO) organoids; assay: Cell viability of WT colon and tumor progression (TPO) organoids; format: cell-based; details: increasing concentrations, measured 5 days later
Method: as §1

In the case of AKIEAAILDAFSQNWRKRRRRQRRKKRG [CL04183], the apoptosis induction [1] is reported as “potently induces apoptosis”, the efficacy against melanoma [2] is reported as “efficacy against NRAS mutated and BRAF mutated melanoma” and the “luciferase-expressing colorectal cancer cells (bioluminescence)” value [3] is reported as “reduces luciferase-expressing colorectal cancer cells in vivo”. For the same sequence, the “colorectal cancer metastasis in liver and lung” value [4] was “reduces colorectal cancer metastasis in liver and lung”, the grey hair [5] was “reduces grey hair” and the “selectivity and potency in senescent vs ctrl cells” value (RPE1 cells) was “superior selectivity and potency”. The “sensitivity of breast cancer cell lines (cell viability, MTS)” value [6] was “correlating with CL04183 (SEQ ID NO: 55) sensitivity”, the “apoptosis in metastatic cancer cells (TUNEL positive cancer cells)” value (CRC29 lung metastases) was “induces apoptosis in metastatic cancer cells in vivo” and the stability in solution [7] was “superior stability”. The “cell viability, sensitivity of organoids with colorectal cancer associated mutations” value [8] was “sensitizes to FOXO4-based peptides, dependent on p53”.
